Biological target: Human SGLT2 (hSGLT2) (Homo sapiens (Human), UniProt P31639)
Test: Inhibitory effects on human SGLT2 activities: sodium-dependent 14C-AMG glucose transport (uptake) assay in CHO cells expressing hSGLT2
Conditions: read-out: hSGLT2 Inhibitory Activity IC50; CHO cells stably expressing hSGLT2; 14C-AMG uptake, 37° C., 2 h; single determinations for examples; in-house assay

Chain of Human SGLT2 (hSGLT2) (P31639 whole entry): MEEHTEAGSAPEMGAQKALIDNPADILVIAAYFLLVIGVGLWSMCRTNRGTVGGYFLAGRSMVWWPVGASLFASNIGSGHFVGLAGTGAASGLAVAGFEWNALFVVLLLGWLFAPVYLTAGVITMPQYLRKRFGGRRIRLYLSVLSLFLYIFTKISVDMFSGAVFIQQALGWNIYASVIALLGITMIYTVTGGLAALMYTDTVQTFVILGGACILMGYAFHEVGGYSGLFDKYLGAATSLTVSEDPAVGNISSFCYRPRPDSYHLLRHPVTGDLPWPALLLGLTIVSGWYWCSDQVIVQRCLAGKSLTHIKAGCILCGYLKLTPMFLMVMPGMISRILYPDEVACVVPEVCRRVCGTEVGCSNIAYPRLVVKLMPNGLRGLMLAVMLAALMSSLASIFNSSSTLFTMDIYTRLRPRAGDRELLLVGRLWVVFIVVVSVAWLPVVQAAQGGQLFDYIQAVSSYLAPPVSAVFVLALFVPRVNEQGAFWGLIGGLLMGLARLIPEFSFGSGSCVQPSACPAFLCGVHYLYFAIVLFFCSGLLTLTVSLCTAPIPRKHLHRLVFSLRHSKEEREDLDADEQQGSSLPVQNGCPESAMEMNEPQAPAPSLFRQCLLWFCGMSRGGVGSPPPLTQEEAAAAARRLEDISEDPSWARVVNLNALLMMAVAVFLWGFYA

IC50 | Compound
34.6 nM | CCOc1ccc(Cc2cc([C@@H]3O[C@H](CO)[C@@H](O)[C@H](O)[C@H]3O)sc2Cl)cc1 [Example 1, (2R,3R,4S,5S,6R)-2-(5-chloro-4-(4-ethoxybenzyl)thiophen-2-yl)-6-(hydroxymethyl)-tetrahydro-2H-pyran-3,4,5-triol]
86.5 nM | COc1ccc(Cc2cc([C@@H]3O[C@H](CO)[C@@H](O)[C@H](O)[C@H]3O)sc2Cl)cc1 [Example 2, (2R,3R,4S,5S,6R)-2-(5-chloro-4-(4-methoxybenzyl)thiophen-2-yl)-6-(hydroxymethyl)-tetrahydro-2H-pyran-3,4,5-triol]
91.3 nM | OC[C@H]1O[C@@H](c2cc(Cc3ccc(-c4ccc(F)cc4)s3)c(Cl)s2)[C@H](O)[C@@H](O)[C@@H]1O [Example 3, (2R,3R,4S,5S,6R)-2-(5-chloro-4-((5-(4-fluorophenyl)thiophen-2-yl)methyl)thiophen-2-yl)-6-(hydroxymethyl)-tetrahydro-2H-pyran-3,4,5-triol]
54.6 nM | C=CCOc1ccc(Cc2cc([C@@H]3O[C@H](CO)[C@@H](O)[C@H](O)[C@H]3O)sc2Cl)cc1 [Example 4, (2R,3R,4S,5S,6R)-2-(4-(4-(allyloxy)benzyl)-5-chlorothiophen-2-yl)-6-(hydroxymethyl)-tetrahydro-2H-pyran-3,4,5-triol]
65 nM | CCCOc1ccc(Cc2cc([C@@H]3O[C@H](CO)[C@@H](O)[C@H](O)[C@H]3O)sc2Cl)cc1 [Example 5, (2R,3R,4S,5S,6R)-2-(5-chloro-4-(4-propoxybenzyl)thiophen-2-yl)-6-(hydroxymethyl)-tetrahydro-2H-pyran-3,4,5-triol]
140 nM | OC[C@H]1O[C@@H](c2cc(Cc3ccc(O)cc3)c(Cl)s2)[C@H](O)[C@@H](O)[C@@H]1O [Example 6, (2R,3R,4S,5S,6R)-2-(5-chloro-4-(4-hydroxybenzyl)thiophen-2-yl)-6-(hydroxymethyl)-tetrahydro-2H-pyran-3,4,5-triol]
48.4 nM | CCSc1ccc(Cc2cc([C@@H]3O[C@H](CO)[C@@H](O)[C@H](O)[C@H]3O)sc2Cl)cc1 [Example 7, (2R,3R,4S,5S,6R)-2-(5-chloro-4-(4-(ethylthio)benzyl)thiophen-2-yl)-6-(hydroxymethyl)-tetrahydro-2H-pyran-3,4,5-triol]
111 nM | C#CCOc1ccc(Cc2cc([C@@H]3O[C@H](CO)[C@@H](O)[C@H](O)[C@H]3O)sc2Cl)cc1 [Example 8, (2R,3R,4S,5S,6R)-2-(5-chloro-4-(4-(prop-2-ynyloxy)benzyl)thiophen-2-yl)-6-(hydroxymethyl)-tetrahydro-2H-pyran-3,4,5-triol]
11.9 nM | CC(C)Oc1ccc(Cc2cc([C@@H]3O[C@H](CO)[C@@H](O)[C@H](O)[C@H]3O)sc2Cl)cc1 [Example 9, (2R,3R,4S,5S,6R)-2-(5-chloro-4-(4-isopropoxybenzyl)thiophen-2-yl)-6-(hydroxymethyl)-tetrahydro-2H-pyran-3,4,5-triol]
115 nM | COCCOc1ccc(Cc2cc([C@@H]3O[C@H](CO)[C@@H](O)[C@H](O)[C@H]3O)sc2Cl)cc1 [Example 10, (2R,3R,4S,5S,6R)-2-(5-chloro-4-(4-(2-methoxyethoxy)benzyl)thiophen-2-yl)-6-(hydroxymethyl)-tetrahydro-2H-pyran-3,4,5-triol]
57.2 nM | OC[C@H]1O[C@@H](c2cc(Cc3ccc(OC4CCCC4)cc3)c(Cl)s2)[C@H](O)[C@@H](O)[C@@H]1O [Example 11, (2R,3R,4S,5S,6R)-2-(5-chloro-4-(4-(cyclopentyloxy)benzyl)thiophen-2-yl)-6-(hydroxymethyl)-tetrahydro-2H-pyran-3,4,5-triol]
12.8 nM | CSc1ccc(Cc2cc([C@@H]3O[C@H](CO)[C@@H](O)[C@H](O)[C@H]3O)sc2Cl)cc1 [Example 12, (2R,3R,4S,5S,6R)-2-(5-chloro-4-(4-(methylthio)benzyl)thiophen-2-yl)-6-(hydroxymethyl)-tetrahydro-2H-pyran-3,4,5-triol]
70.7 nM | CCOCCOc1ccc(Cc2cc([C@@H]3O[C@H](CO)[C@@H](O)[C@H](O)[C@H]3O)sc2Cl)cc1 [Example 13, (2R,3R,4S,5S,6R)-2-(5-chloro-4-(4-(2-ethoxyethoxy)benzyl)thiophen-2-yl)-6-(hydroxymethyl)-tetrahydro-2H-pyran-3,4,5-triol]
60.2 nM | Cc1ccc(Cc2cc([C@@H]3O[C@H](CO)[C@@H](O)[C@H](O)[C@H]3O)sc2Cl)cc1 [Example 14, (2R,3R,4S,5S,6R)-2-(5-chloro-4-(4-methylbenzyl)thiophen-2-yl)-6-(hydroxymethyl)-tetrahydro-2H-pyran-3,4,5-triol]
94 nM | CC#CCOc1ccc(Cc2cc([C@@H]3O[C@H](CO)[C@@H](O)[C@H](O)[C@H]3O)sc2Cl)cc1 [Example 15, (2R,3R,4S,5S,6R)-2-(4-(4-(but-2-ynyloxy)benzyl)-5-chlorothiophen-2-yl)-6-(hydroxymethyl)-tetrahydro-2H-pyran-3,4,5-triol]
162 nM | OC[C@H]1O[C@@H](c2cc(Cc3ccc(OC4CCOC4)cc3)c(Cl)s2)[C@H](O)[C@@H](O)[C@@H]1O (stereo partly drawn) [Example 16, (2R,3R,4S,5S,6R)-2-(5-chloro-4-(4-(tetrahydrofuran-3-yloxy)benzyl)thiophen-2-yl)-6-(hydroxymethyl)-tetrahydro-2H-pyran-3,4,5-triol]

IC50 | Compound
4.47 nM | CCc1ccc(Cc2cc([C@@H]3O[C@H](CO)[C@@H](O)[C@H](O)[C@H]3O)sc2Cl)cc1 [Example 17, (2R,3R,4S,5S,6R)-2-(5-chloro-4-(4-ethylbenzyl)thiophen-2-yl)-6-(hydroxymethyl)-tetrahydro-2H-pyran-3,4,5-triol]
10.3 nM | CCCc1ccc(Cc2cc([C@@H]3O[C@H](CO)[C@@H](O)[C@H](O)[C@H]3O)sc2Cl)cc1 [Example 18, (2R,3R,4S,5S,6R)-2-(5-chloro-4-(4-propylbenzyl)thiophen-2-yl)-6-(hydroxymethyl)-tetrahydro-2H-pyran-3,4,5-triol]
8.73 nM | CCOc1ccc(Cc2cc([C@@H]3O[C@H](CO)[C@@H](O)[C@H](O)[C@H]3O)sc2C)cc1 [Example 19, (2R,3R,4S,5S,6R)-2-(4-(4-ethoxybenzyl)-5-methylthiophen-2-yl)-6-(hydroxymethyl)-tetrahydro-2H-pyran-3,4,5-triol]
11.5 nM | COc1ccc(Cc2cc([C@@H]3O[C@H](CO)[C@@H](O)[C@H](O)[C@H]3O)sc2C)cc1 [Example 20, (2R,3S,4S,5R,6R)-2-(hydroxymethyl)-6-(4-(4-methoxybenzyl)-5-methylthiophen-2-yl)-tetrahydro-2H-pyran-3,4,5-triol]
21.1 nM | Cc1sc([C@@H]2O[C@H](CO)[C@@H](O)[C@H](O)[C@H]2O)cc1Cc1ccc(-c2ccc(F)cc2)s1 [Example 21, (2R,3R,4S,5S,6R)-2-(4-((5-(4-fluorophenyl)thiophen-2-yl)methyl)-5-methylthiophen-2-yl)-6-(hydroxymethyl)-tetrahydro-2H-pyran-3,4,5-triol]
27.5 nM | C=CCOc1ccc(Cc2cc([C@@H]3O[C@H](CO)[C@@H](O)[C@H](O)[C@H]3O)sc2C)cc1 [Example 22, (2R,3R,4S,5S,6R)-2-(4-(4-(allyloxy)benzyl)-5-methylthiophen-2-yl)-6-(hydroxymethyl)-tetrahydro-2H-pyran-3,4,5-triol]
50.2 nM | Cc1sc([C@@H]2O[C@H](CO)[C@@H](O)[C@H](O)[C@H]2O)cc1Cc1ccc(O)cc1 [Example 23, (2R,3R,4S,5S,6R)-2-(4-(4-hydroxybenzyl)-5-methylthiophen-2-yl)-6-(hydroxymethyl)-tetrahydro-2H-pyran-3,4,5-triol]
59.8 nM | CCCc1ccc(Cc2sc([C@@H]3O[C@H](CO)[C@@H](O)[C@H](O)[C@H]3O)cc2C)cc1 [Example 24, (2R,3S,4S,5R,6R)-2-(hydroxymethyl)-6-(4-methyl-5-(4-propylbenzyl)thiophen-2-yl)tetrahydro-2H-pyran-3,4,5-triol]
24.8 nM | CCc1ccc(Cc2sc([C@@H]3O[C@H](CO)[C@@H](O)[C@H](O)[C@H]3O)cc2C)cc1 [Example 25, (2R,3R,4S,5S,6R)-2-(5-(4-ethylbenzyl)-4-methylthiophen-2-yl)-6-(hydroxymethyl)tetrahydro-2H-pyran-3,4,5-triol]
69.6 nM | Cc1ccc(Cc2sc([C@@H]3O[C@H](CO)[C@@H](O)[C@H](O)[C@H]3O)cc2C)cc1 [Example 26, (2R,3S,4S,5R,6R)-2-(hydroxymethyl)-6-(4-methyl-5-(4-methylbenzyl)thiophen-2-yl)tetrahydro-2H-pyran-3,4,5-triol]
88.3 nM | Cc1cc([C@@H]2O[C@H](CO)[C@@H](O)[C@H](O)[C@H]2O)sc1Cc1ccc(C(C)(C)C)cc1 [Example 27, (2R,3R,4S,5S,6R)-2-(5-(4-tert-butylbenzyl)-4-methylthiophen-2-yl)-6-(hydroxymethyl)tetrahydro-2H-pyran-3,4,5-triol]
451 nM | Cc1cc([C@@H]2O[C@H](CO)[C@@H](O)[C@H](O)[C@H]2O)sc1Cc1ccc(Cl)cc1 [Example 28, (2R,3R,4S,5S,6R)-2-(5-(4-chlorobenzyl)-4-methylthiophen-2-yl)-6-(hydroxymethyl)tetrahydro-2H-pyran-3,4,5-triol]
> 10000 nM | Cc1cc([C@@H]2O[C@H](CO)[C@@H](O)[C@H](O)[C@H]2O)sc1Cc1ccc(F)cc1 [Example 29, (2R,3R,4S,5S,6R)-2-(5-(4-fluorobenzyl)-4-methylthiophen-2-yl)-6-(hydroxymethyl)tetrahydro-2H-pyran-3,4,5-triol]
68.9 nM | COc1ccc(Cc2sc([C@@H]3O[C@H](CO)[C@@H](O)[C@H](O)[C@H]3O)cc2C)cc1 [Example 30, (2R,3S,4S,5R,6R)-2-(hydroxymethyl)-6-(5-(4-methoxybenzyl)-4-methylthiophen-2-yl)tetrahydro-2H-pyran-3,4,5-triol]
71.4 nM | CCOc1ccc(Cc2sc([C@@H]3O[C@H](CO)[C@@H](O)[C@H](O)[C@H]3O)cc2C)cc1 [Example 31, (2R,3R,4S,5S,6R)-2-(5-(4-ethoxybenzyl)-4-methylthiophen-2-yl)-6-(hydroxymethyl)tetrahydro-2H-pyran-3,4,5-triol]
